# Assay results reported in ChEMBL document CHEMBL1201862, “PubChem BioAssay data set” (2004).
#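 In this assay, cells in 96-well plates receive the compound at five concentrations for 48 hours. Endpoints are linearly interpolated between the surrounding concentrations. Here, GI50 denotes the concentration required for 50% inhibition of growth.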 Active and inactive are the calls of the source. Rule as the data show it: active = GI50 up to about 1.1 µM and inactive = higher.
# Tests used:
# Assay in all cases: NCI anticancer screen, dose series, 48 h
# 786-0 = test system: 786-0
# A549 = test system: A549
# ACHN = test system: ACHN
# BT-549 = test system: BT-549
# CCRF-CEM = test system: CCRF-CEM
# COLO 205 = test system: COLO 205
# DU-145 = test system: DU-145
# HCC 2998 = test system: HCC 2998
# HCT-116 = test system: HCT-116
# HCT-15 = test system: HCT-15
# HL-60 = test system: HL-60
# HOP-62 = test system: HOP-62
# HOP-92 = test system: HOP-92
# HT-29 = test system: HT-29
# Hs-578T = test system: Hs-578T
# IGROV-1 = test system: IGROV-1
# K562 = test system: K562
# KM12 = test system: KM12
# M14 = test system: M14
# MCF7 = test system: MCF7
# MDA-MB-231 = test system: MDA-MB-231
# MDA-MB-435 = test system: MDA-MB-435
# MDA-N = test system: MDA-N
# MOLT-4 = test system: MOLT-4
# Malme-3M = test system: Malme-3M
# NCI-H226 = test system: NCI-H226
# NCI-H23 = test system: NCI-H23
# NCI-H460 = test system: NCI-H460
# NCI-H522 = test system: NCI-H522
# NCI/ADR-RES = test system: NCI/ADR-RES
# OVCAR-3 = test system: OVCAR-3
# OVCAR-4 = test system: OVCAR-4
# OVCAR-5 = test system: OVCAR-5
# PC-3 = test system: PC-3
# RPMI-8226 = test system: RPMI-8226
# RXF 393 = test system: RXF 393
# SF-268 = test system: SF-268
# SF-295 = test system: SF-295
# SF-539 = test system: SF-539
# SK-MEL-28 = test system: SK-MEL-28
# SK-MEL-5 = test system: SK-MEL-5
# SK-OV-3 = test system: SK-OV-3
# SN12C = test system: SN12C
# SNB-19 = test system: SNB-19
# SNB-75 = test system: SNB-75
# SR = test system: SR
# SW-620 = test system: SW-620
# T47D = test system: T47D
# TK-10 = test system: TK-10
# U-251 = test system: U-251
# UACC-257 = test system: UACC-257
# UACC-62 = test system: UACC-62
# A498 = test system: A498
# CAKI-1 = test system: CAKI-1
# EKVX = test system: EKVX
# LOX IMVI = test system: LOX IMVI
# OVCAR-8 = test system: OVCAR-8
# UO-31 = test system: UO-31
structure (smiles),measurement,setting,value
CCCc1nc2c(n1CC)C(=O)c1ccccc1C2=O,GI50,786-0,> 100 µM (inactive)
same,GI50,A549,46.5 µM (inactive)
same,GI50,ACHN,40.3 µM (inactive)
same,GI50,BT-549,79.8 µM (inactive)
same,GI50,CCRF-CEM,24.5 µM (inactive)
same,GI50,COLO 205,35.5 µM (inactive)
same,GI50,DU-145,74.5 µM (inactive)
same,GI50,HCC 2998,30.8 µM (inactive)
same,GI50,HCT-116,39.3 µM (inactive)
same,GI50,HCT-15,28.3 µM
same,GI50,HL-60,44.4 µM (inactive)
same,GI50,HOP-62,> 100 µM (inactive)
same,GI50,HOP-92,> 10 µM (inactive)
same,GI50,HT-29,18.5 µM (inactive)
same,GI50,Hs-578T,> 100 µM (inactive)
same,GI50,IGROV-1,27 µM (inactive)
same,GI50,K562,31.1 µM (inactive)
same,GI50,KM12,40.3 µM (inactive)
same,GI50,M14,33.2 µM (inactive)
same,GI50,MCF7,51.1 µM (inactive)
same,GI50,MDA-MB-231,79.6 µM (inactive)
same,GI50,MDA-MB-435,17.5 µM (inactive)
same,GI50,MDA-N,20 µM (inactive)
same,GI50,MOLT-4,17 µM (inactive)
same,GI50,Malme-3M,22.2 µM (inactive)
same,GI50,NCI-H226,56 µM (inactive)
same,GI50,NCI-H23,39.4 µM (inactive)
same,GI50,NCI-H460,37.2 µM (inactive)
same,GI50,NCI-H522,24.3 µM (inactive)
same,GI50,NCI/ADR-RES,26.2 µM (inactive)
same,GI50,OVCAR-3,32.5 µM (inactive)
same,GI50,OVCAR-4,32.1 µM (inactive)
same,GI50,OVCAR-5,> 100 µM (inactive)
same,GI50,PC-3,34.2 µM (inactive)
same,GI50,RPMI-8226,31.3 µM (inactive)
same,GI50,RXF 393,26.9 µM (inactive)
same,GI50,SF-268,45.5 µM (inactive)
same,GI50,SF-295,56 µM (inactive)
same,GI50,SF-539,63.5 µM (inactive)
same,GI50,SK-MEL-28,82.2 µM (inactive)
same,GI50,SK-MEL-5,29.8 µM (inactive)
same,GI50,SK-OV-3,21.7 µM (inactive)
same,GI50,SN12C,30.5 µM (inactive)
same,GI50,SNB-19,86.9 µM (inactive)
same,GI50,SNB-75,24.8 µM (inactive)
same,GI50,SR,42.3 µM (inactive)
same,GI50,SW-620,39.1 µM (inactive)
same,GI50,T47D,28.5 µM (inactive)
same,GI50,TK-10,66.1 µM (inactive)
same,GI50,U-251,59.3 µM (inactive)
same,GI50,UACC-257,18 µM (inactive)
same,GI50,UACC-62,26 µM (inactive)
Cc1nc2[nH]ccn2c(=O)c1CCO,GI50,786-0,> 10 µM (inactive)
same,GI50,A498,> 10 µM (inactive)
same,GI50,A549,> 10 µM (inactive)
same,GI50,ACHN,> 10 µM (inactive)
same,GI50,BT-549,> 10 µM (inactive)
same,GI50,CAKI-1,> 10 µM (inactive)
same,GI50,CCRF-CEM,> 10 µM (inactive)
same,GI50,COLO 205,> 10 µM (inactive)
same,GI50,DU-145,> 10 µM (inactive)
same,GI50,EKVX,> 10 µM (inactive)
same,GI50,HCT-116,> 10 µM (inactive)
same,GI50,HCT-15,> 10 µM
same,GI50,HL-60,> 10 µM (inactive)
same,GI50,HOP-62,> 10 µM (inactive)
same,GI50,HOP-92,> 10 µM (inactive)
same,GI50,HT-29,> 10 µM (inactive)
same,GI50,Hs-578T,> 10 µM (inactive)
same,GI50,IGROV-1,> 10 µM (inactive)
same,GI50,K562,> 10 µM (inactive)
same,GI50,KM12,> 10 µM (inactive)
same,GI50,LOX IMVI,> 10 µM (inactive)
same,GI50,M14,> 10 µM (inactive)
same,GI50,MCF7,> 10 µM (inactive)
same,GI50,MDA-MB-231,> 10 µM (inactive)
same,GI50,MDA-MB-435,> 10 µM (inactive)
same,GI50,MDA-N,> 10 µM (inactive)
same,GI50,MOLT-4,> 10 µM (inactive)
same,GI50,Malme-3M,> 10 µM (inactive)
same,GI50,NCI-H226,> 10 µM (inactive)
same,GI50,NCI-H23,> 10 µM (inactive)
same,GI50,NCI-H460,> 10 µM (inactive)
same,GI50,NCI/ADR-RES,> 10 µM (inactive)
same,GI50,OVCAR-3,> 10 µM (inactive)
same,GI50,OVCAR-4,> 10 µM (inactive)
same,GI50,OVCAR-5,> 10 µM (inactive)
same,GI50,OVCAR-8,> 10 µM (inactive)
same,GI50,PC-3,> 10 µM (inactive)
same,GI50,RPMI-8226,> 10 µM (inactive)
same,GI50,RXF 393,> 10 µM (inactive)
same,GI50,SF-268,> 10 µM (inactive)
same,GI50,SF-295,> 10 µM (inactive)
same,GI50,SF-539,> 10 µM (inactive)
same,GI50,SK-MEL-28,> 10 µM (inactive)
same,GI50,SK-MEL-5,> 10 µM (inactive)
same,GI50,SK-OV-3,> 10 µM (inactive)
same,GI50,SN12C,> 10 µM (inactive)
same,GI50,SNB-19,> 10 µM (inactive)
same,GI50,SNB-75,> 10 µM (inactive)
same,GI50,SR,> 10 µM (inactive)
same,GI50,SW-620,> 10 µM (inactive)
same,GI50,T47D,> 10 µM (inactive)
same,GI50,TK-10,> 10 µM (inactive)
same,GI50,U-251,> 10 µM (inactive)
same,GI50,UACC-257,> 10 µM (inactive)
same,GI50,UACC-62,> 10 µM (inactive)
same,GI50,UO-31,> 10 µM (inactive)
CC1=C(C(=O)OCc2ccncc2)C(C2=C(C)SCCS2)C(C(=O)OCc2ccncc2)=C(C)N1,GI50,786-0,28.6 µM (inactive)
same,GI50,A549,33.3 µM (inactive)
same,GI50,ACHN,34.5 µM (inactive)
same,GI50,BT-549,20.4 µM (inactive)
same,GI50,CAKI-1,26.3 µM (inactive)
same,GI50,CCRF-CEM,17.7 µM (inactive)
same,GI50,COLO 205,22.2 µM (inactive)
same,GI50,DU-145,29.4 µM (inactive)
same,GI50,EKVX,21.2 µM (inactive)
same,GI50,HCC 2998,> 10 µM (inactive)
same,GI50,HCT-116,15.1 µM (inactive)
same,GI50,HCT-15,25.6 µM
same,GI50,HL-60,25.4 µM (inactive)
same,GI50,HOP-62,21.7 µM (inactive)
same,GI50,HOP-92,12.3 µM (inactive)
same,GI50,HT-29,17.9 µM (inactive)
same,GI50,Hs-578T,10.6 µM (inactive)
same,GI50,IGROV-1,62.5 µM (inactive)
same,GI50,K562,20 µM (inactive)
same,GI50,KM12,21.3 µM (inactive)
same,GI50,LOX IMVI,18.8 µM (inactive)
same,GI50,M14,28.7 µM (inactive)
same,GI50,MCF7,20.8 µM (inactive)
same,GI50,MDA-MB-231,26.9 µM (inactive)
same,GI50,MDA-MB-435,17.8 µM (inactive)
same,GI50,MDA-N,30.5 µM (inactive)
same,GI50,MOLT-4,15.3 µM (inactive)
same,GI50,NCI-H226,18.5 µM (inactive)
same,GI50,NCI-H23,24.2 µM (inactive)
same,GI50,NCI-H460,23.4 µM (inactive)
same,GI50,NCI-H522,22.8 µM (inactive)
same,GI50,NCI/ADR-RES,37.4 µM (inactive)
same,GI50,OVCAR-3,19.3 µM (inactive)
same,GI50,OVCAR-4,38.3 µM (inactive)
same,GI50,OVCAR-5,40.7 µM (inactive)
same,GI50,OVCAR-8,26.4 µM (inactive)
same,GI50,PC-3,20.9 µM (inactive)
same,GI50,RXF 393,12 µM (inactive)
same,GI50,SF-268,33 µM (inactive)
same,GI50,SF-295,18.2 µM (inactive)
same,GI50,SF-539,16.4 µM (inactive)
same,GI50,SK-MEL-28,16.8 µM (inactive)
same,GI50,SK-MEL-5,15.3 µM (inactive)
same,GI50,SK-OV-3,26.6 µM (inactive)
same,GI50,SN12C,25.1 µM (inactive)
same,GI50,SNB-19,29.1 µM (inactive)
same,GI50,SNB-75,15.8 µM (inactive)
same,GI50,SR,33.6 µM (inactive)
same,GI50,SW-620,25.6 µM (inactive)
same,GI50,T47D,16.1 µM (inactive)
same,GI50,TK-10,40.8 µM (inactive)
same,GI50,U-251,16.7 µM (inactive)
same,GI50,UACC-257,17.1 µM (inactive)
same,GI50,UACC-62,16.3 µM (inactive)
same,GI50,UO-31,17.5 µM (inactive)
